# Results published in ChEMBL document CHEMBL1201862, “PubChem BioAssay data set” (2004).
# Active and inactive are the calls of the source.
# How the values were obtained:
# [1] = target: Induced myeloid leukemia cell differentiation protein Mcl-1 (Homo sapiens, UniProt Q07820); assay type: functional
# Cytochrome P450 2C19 = Cytochrome P450 2C19 (Homo sapiens, UniProt P33261); experiment: Cytochrome panel assay with activity outcomes. Panel member name: p450-cyp2c19 Compounds with AC50 equal or less than 10 uM are considered active; assay type: functional; settings: read-out: AC50
# [2] = target: T1, Rac GTPase-activating protein 1 (Homo sapiens, UniProt Q9H0H5); experiment: MgcRacGAP GTPase-activating activity inhibitors, confirmation, biochemical, ADP Hunter fluorescence, primary and confirmatory (AID 624330); assay type: functional
# T1 sequence (Q9H0H5 whole entry): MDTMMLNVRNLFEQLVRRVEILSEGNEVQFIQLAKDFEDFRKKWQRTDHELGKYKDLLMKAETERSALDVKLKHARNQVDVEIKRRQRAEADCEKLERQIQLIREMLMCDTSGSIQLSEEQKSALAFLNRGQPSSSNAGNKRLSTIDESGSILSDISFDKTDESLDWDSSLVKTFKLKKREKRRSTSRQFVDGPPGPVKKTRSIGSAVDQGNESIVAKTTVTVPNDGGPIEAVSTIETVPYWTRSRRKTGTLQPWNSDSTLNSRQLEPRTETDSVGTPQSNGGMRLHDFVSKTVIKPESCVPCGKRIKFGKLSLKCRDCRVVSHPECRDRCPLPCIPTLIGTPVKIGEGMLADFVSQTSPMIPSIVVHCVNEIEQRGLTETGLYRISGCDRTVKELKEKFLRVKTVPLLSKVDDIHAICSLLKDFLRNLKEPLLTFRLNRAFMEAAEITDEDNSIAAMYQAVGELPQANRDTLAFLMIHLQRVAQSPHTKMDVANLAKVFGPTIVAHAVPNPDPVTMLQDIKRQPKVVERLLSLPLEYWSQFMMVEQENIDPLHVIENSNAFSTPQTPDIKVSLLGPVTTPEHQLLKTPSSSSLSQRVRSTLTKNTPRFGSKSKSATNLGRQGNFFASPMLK
# [3] = Luminescence Cell-Based Dose Response HTS to Identify Activators of Luciferase Translation or Activity in H4 […] Cells. [Related pubchem assays: 1829 (Project Summary), 1814 (Primary HTS)]; assay type: functional
# H4 = experiment: Luminescence Cell-Based Dose Response HTS to Identify Activators of 5'UTR Stem-Loop Driven Prion Protein mRNA Translation in H4 Neuroglioblastoma Cells. [Related pubchem assays: 1829 (Project Summary), 1814 (Primary HTS)]; assay type: functional; settings: Homo sapiens
# [4] = target: T2, Replicative DNA helicase DnaB (Mycobacterium tuberculosis, UniProt P9WMR3); experiment: DnaB intein splicing inhibitors, dose response, biochemical, cell-free fluorescence (AID 449749); assay type: functional
# T2 sequence (P9WMR3 whole entry): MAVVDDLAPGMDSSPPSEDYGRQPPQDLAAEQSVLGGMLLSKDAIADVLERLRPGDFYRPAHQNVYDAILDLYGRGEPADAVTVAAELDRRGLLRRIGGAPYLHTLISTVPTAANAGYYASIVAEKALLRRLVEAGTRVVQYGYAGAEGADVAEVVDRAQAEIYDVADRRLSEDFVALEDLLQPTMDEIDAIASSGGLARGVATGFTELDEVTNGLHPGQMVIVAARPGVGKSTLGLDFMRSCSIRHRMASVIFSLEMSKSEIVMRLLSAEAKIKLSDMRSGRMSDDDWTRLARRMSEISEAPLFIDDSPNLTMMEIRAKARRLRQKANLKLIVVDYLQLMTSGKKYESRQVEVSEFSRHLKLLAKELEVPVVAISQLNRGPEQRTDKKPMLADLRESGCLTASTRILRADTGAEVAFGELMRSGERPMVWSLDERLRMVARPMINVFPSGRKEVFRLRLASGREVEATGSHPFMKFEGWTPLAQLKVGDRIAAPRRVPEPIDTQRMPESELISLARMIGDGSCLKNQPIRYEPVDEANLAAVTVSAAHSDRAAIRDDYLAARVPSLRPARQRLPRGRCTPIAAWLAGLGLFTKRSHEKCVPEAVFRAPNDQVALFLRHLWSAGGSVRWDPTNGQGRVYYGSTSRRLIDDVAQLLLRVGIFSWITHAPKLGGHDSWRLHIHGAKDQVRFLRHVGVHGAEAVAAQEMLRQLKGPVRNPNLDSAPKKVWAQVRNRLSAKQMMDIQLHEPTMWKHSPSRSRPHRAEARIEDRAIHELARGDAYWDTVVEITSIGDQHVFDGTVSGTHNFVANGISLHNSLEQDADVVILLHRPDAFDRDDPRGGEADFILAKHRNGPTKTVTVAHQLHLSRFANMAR
# Protein RecA = target: T3, Protein RecA (Mycobacterium tuberculosis, UniProt P9WHJ3); experiment: Fluorescence Cell-Free Homogeneous Dose Retest to Identify Inhibitors of RecA-Intein Splicing Activity. [Related pubchem assays (depositor defined):AID2097, AID2223, AID489010, AID492950]; assay type: functional
# T3 sequence (P9WHJ3 whole entry): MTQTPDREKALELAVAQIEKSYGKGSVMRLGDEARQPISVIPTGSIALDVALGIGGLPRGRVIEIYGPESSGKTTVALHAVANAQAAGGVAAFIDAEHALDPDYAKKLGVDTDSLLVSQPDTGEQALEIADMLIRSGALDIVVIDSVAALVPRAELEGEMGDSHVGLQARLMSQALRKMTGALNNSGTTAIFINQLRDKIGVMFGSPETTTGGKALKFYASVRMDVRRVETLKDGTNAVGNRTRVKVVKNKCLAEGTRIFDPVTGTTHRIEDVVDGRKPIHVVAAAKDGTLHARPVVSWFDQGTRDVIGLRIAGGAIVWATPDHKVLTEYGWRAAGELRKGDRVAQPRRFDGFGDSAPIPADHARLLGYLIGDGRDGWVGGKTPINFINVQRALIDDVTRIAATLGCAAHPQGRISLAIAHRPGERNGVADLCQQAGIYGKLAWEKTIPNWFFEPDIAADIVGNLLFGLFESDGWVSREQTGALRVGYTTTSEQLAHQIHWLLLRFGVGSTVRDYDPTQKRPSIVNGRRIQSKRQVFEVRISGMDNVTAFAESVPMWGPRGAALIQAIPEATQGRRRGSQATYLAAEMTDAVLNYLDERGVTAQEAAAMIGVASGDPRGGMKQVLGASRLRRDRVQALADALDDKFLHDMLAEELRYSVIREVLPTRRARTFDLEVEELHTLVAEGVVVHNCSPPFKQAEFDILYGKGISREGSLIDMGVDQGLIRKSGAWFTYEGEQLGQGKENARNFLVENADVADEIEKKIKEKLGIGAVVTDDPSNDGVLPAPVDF
# Nonstructural protein 1 = Nonstructural protein 1 (Influenza A virus, UniProt Q194T2); assay type: functional, Influenza A virus (A/California/07/2009(H1N1))
# Vero = experiment: cells; assay type: functional; settings: Chlorocebus sabaeus
# [5] = inhibitors of intracellular T. cruzi replication, confirmation, NIH3T3 host cells, beta-gal luminescence (AID 2044); assay type: functional, cell-based;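 also: intracellular parasites grown in NIH/3T3 mouse fibroblasts as host cells; luminescent beta-galactosidase reporter signal from transgenic T. cruzi replicating inside host cells; inhibitors lower the luminescence signal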
# INS1 = experiment: beta cell apoptosis inhibitors, cytokine rescue, dose response, luminescence, retest (AID 449756); assay type: functional, cell-based; settings: Rattus norvegicus;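 also: cell death triggered by IL-1 beta plus TNF-alpha plus IFN-gamma mixture; protective hits raise ATP signal compared with cytokine alone wells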
# [6] = cytotoxicity toward NIH3T3 fibroblasts, dose response, counter-screen, cell-based, ATP luminescence, mouse fibroblasts (AID 2010); assay type: functional;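 also: cells exposed to compound for about 90 hours before reading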
# [7] = intracellular Trypanosoma cruzi inhibitors in host cells – cell-based, plate reader, cherry-pick samples, set 3, dose response (AID 651818); assay type: functional;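 also: compounds incubated with infected cells for about four days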
# [8] = Luminescence Cell-Based Dose Retest to Confirm Inhibitors of Cancer Stem Cells. [Related pubchem assays (depositor defined):AID2717, AID2721]; assay type: functional; settings: Homo sapiens
# [9] = target: T4, RNA-binding protein pos-1 (Caenorhabditis elegans, UniProt G5EF15); experiment: inhibitors of POS-1/mex-3 RNA binding, dose response, biochemical, fluorescence polarization (AID 1964);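 also: purified POS-1 fused to maltose binding protein made in E. coli; potency of compounds blocking POS-1 binding to fluorescent RNA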
# T4 sequence (G5EF15 whole entry): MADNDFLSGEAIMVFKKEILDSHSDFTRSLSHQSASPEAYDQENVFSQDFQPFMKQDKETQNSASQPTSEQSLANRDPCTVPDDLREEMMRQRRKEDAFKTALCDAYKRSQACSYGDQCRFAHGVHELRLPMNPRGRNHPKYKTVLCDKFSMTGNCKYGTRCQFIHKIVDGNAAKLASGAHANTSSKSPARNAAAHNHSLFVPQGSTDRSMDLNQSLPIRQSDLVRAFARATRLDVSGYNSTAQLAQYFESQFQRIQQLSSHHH
# [10] = target: T5, Zinc finger protein mex-5 (Caenorhabditis elegans, UniProt Q9XUB2); experiment: MEX-5/TCR-2 RNA interaction inhibitors, dose response, biochemical, C. elegans, fluorescence polarization (AID 1960)
# T5 sequence (Q9XUB2 whole entry): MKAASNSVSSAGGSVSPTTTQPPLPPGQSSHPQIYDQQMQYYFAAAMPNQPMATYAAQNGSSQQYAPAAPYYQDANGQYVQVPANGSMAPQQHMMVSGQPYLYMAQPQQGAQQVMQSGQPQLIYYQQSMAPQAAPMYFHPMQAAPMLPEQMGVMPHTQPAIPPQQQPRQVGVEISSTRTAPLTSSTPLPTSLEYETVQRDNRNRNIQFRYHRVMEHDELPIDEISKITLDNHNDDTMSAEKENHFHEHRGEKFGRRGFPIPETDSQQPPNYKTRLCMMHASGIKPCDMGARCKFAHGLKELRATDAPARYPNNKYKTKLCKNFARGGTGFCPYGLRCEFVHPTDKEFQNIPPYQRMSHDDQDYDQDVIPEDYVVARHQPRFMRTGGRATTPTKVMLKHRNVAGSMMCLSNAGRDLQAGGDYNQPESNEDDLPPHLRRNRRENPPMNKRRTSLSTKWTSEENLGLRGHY
# Sequence of Induced myeloid leukemia cell differentiation protein Mcl-1 (Q07820 whole entry): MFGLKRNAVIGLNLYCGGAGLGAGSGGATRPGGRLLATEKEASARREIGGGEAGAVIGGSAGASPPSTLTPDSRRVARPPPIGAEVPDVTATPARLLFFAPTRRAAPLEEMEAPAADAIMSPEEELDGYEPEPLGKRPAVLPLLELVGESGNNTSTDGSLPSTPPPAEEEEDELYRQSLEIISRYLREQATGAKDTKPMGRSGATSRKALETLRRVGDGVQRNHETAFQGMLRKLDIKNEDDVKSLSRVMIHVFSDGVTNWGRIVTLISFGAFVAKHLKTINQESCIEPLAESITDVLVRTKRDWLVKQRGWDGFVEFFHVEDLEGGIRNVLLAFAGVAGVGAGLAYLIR
# Sequence of Nonstructural protein 1 (Q194T2 whole entry): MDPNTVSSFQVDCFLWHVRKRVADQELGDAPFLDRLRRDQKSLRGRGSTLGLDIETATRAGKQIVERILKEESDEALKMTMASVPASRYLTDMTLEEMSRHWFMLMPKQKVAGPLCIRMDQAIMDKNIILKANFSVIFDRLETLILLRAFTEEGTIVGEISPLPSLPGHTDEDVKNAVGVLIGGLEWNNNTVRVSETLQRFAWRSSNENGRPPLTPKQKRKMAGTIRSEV
# Sequence of Cytochrome P450 2C19 (P33261 whole entry): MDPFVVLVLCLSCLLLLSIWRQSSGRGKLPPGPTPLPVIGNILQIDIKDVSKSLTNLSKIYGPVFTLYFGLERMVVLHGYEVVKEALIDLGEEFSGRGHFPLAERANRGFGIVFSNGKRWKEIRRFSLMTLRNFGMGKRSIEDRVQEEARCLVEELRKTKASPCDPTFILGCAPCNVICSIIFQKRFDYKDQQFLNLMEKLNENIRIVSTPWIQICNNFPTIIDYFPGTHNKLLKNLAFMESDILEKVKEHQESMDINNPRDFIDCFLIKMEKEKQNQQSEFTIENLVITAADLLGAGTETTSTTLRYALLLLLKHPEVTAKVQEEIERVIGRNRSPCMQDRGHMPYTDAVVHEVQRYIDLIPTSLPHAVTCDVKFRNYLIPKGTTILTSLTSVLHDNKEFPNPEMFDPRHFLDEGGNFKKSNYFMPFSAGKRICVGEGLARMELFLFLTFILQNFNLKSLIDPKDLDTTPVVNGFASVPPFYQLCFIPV
smiles,measurement,setting,value
CC(=O)c1ccc(-n2c(CCC(=O)O)ccc2-c2cccs2)cc1,IC50,[1],9.23 µM (not active)
same,AC50,Cytochrome P450 2C19,11.2 µM (inconclusive)
CN(C)C=O.Oc1cccc2c(NC(S)=Nc3ccc(OC(F)F)cc3)cccc12,IC50,[2],116 µM (active)
same,EC50,[3],12.8 µM (active)
same,EC50,H4,> 120 µM (not active)
COc1ccc(C(=O)C[n+]2ccc(-c3nnc4n3CCCCC4)cc2)cc1,IC50,[1],> 54 µM (active)
Cc1ccc(-n2nc(C)c3c2OC(N)=C(C#N)C3c2ccc(C)o2)cc1 (configuration not stated),AC50,[4],5.9 µM (active)
same,EC50,Protein RecA,25.7 µM (inconclusive)
same,IC50,Nonstructural protein 1,24.9 µM (active)
Cn1cc(/C=C2/SC(=O)N(c3ccccc3)C2=O)c2ccccc21,EC50,[3],50.8 µM (active)
same,EC50,H4,94.6 µM (active)
CCN1CCN(Cc2ccc(NC(=O)c3cc(NC(=O)N4CCNC4=O)cc(OC)c3)cc2C(F)(F)F)CC1,CC50,Vero,> 25 µM (active)
O=C(CCSc1ccc(Cl)cc1)N1CCCCCC1,EC50,[3],> 120 µM (not active)
same,EC50,H4,21.6 µM (active)
CC(C)C(=O)OCC(=O)Nc1ccc(N=Nc2ccccc2)cc1,IC50,Nonstructural protein 1,> 100 µM (active)
CCCN1C(=O)S/C(=C/c2ccc(N3CCOCC3)o2)C1=O,CC50,Vero,> 25 µM (active)
C/C(=C\c1ccco1)C1Nc2cccc3cccc(c23)N1,IC50,[1],8.61 µM (active)
O=C(COC(=O)C1CCCCC1)Nc1ccc(N2CCCCC2)cc1,IC50,Nonstructural protein 1,34.6 µM (active)
Cc1[nH]c2ccccc2c1CN1CCC(Cc2ccccc2)CC1,EC50,[5],0.212 µM (active)
same,CC50,Vero,> 25 µM (active)
same,AC50,INS1,3.46 µM (active)
same,EC50,[6],10.9 µM (active)
C[C@@H]1CN([C@H](C)CO)C(=O)Cc2cc(NS(=O)(=O)c3ccc(Cl)cc3)ccc2O[C@H]1CN(C)Cc1ccc2c(c1)OCO2,AC50,[7],3.53 µM (active)
Cc1noc(C)c1NC(=O)Nc1cccc2c1O[C@@H](CN(C)S(C)(=O)=O)[C@@H](C)CN([C@@H](C)CO)C2=O,AC50,[7],1.01 µM (active)
C[C@H]1CN([C@@H](C)CO)C(=O)Cc2cc(NC(=O)Nc3ccc(C(F)(F)F)cc3)ccc2O[C@H]1CN(C)Cc1ccccc1,AC50,[7],3.08 µM (active)
C[C@@H]1CCCCO[C@H](CN(C)Cc2ccc(Cl)c(Cl)c2)[C@@H](C)CN([C@H](C)CO)C(=O)c2cc(NC(=O)Nc3ccc4c(c3)OCO4)ccc2O1,AC50,[7],4.02 µM (active)
C[C@H](CO)N1C[C@H](C)[C@@H](CN(C)C(=O)Nc2cccc3ccccc23)Oc2c(NC(=O)Nc3ccc4c(c3)OCO4)cccc2C1=O,AC50,[7],6.85 µM (active)
C[C@H](CO)N1C[C@H](C)[C@@H](CN(C)Cc2ccccc2)Oc2c(NC(=O)CCCCCC(=O)Nc3ccccc3N)cccc2C1=O,AC50,[7],3.24 µM (active)
C[C@@H]1CN([C@@H](C)CO)C(=O)c2cccc(NC(=O)Nc3ccc(C(F)(F)F)cc3)c2O[C@@H]1CN(C)Cc1ccc(Oc2ccccc2)cc1,AC50,[7],6.09 µM (active)
C[C@@H]1CCCCO[C@@H](CN(C)Cc2ccc(Cl)c(Cl)c2)[C@@H](C)CN([C@H](C)CO)C(=O)c2cc(NC(=O)Nc3ccc(F)cc3)ccc2O1,AC50,[7],2.38 µM (active)
C[C@H](CO)N1C[C@H](C)[C@@H](CN(C)Cc2ccc(C(F)(F)F)cc2)Oc2c(NS(=O)(=O)c3ccccc3)cccc2C1=O,AC50,[7],8.8 µM (active)
COc1ccc(NC(=O)Nc2cccc3c2O[C@H](CN(C)Cc2ccc(C(=O)Nc4ccccc4N)cc2)[C@@H](C)CN([C@@H](C)CO)C3=O)cc1,AC50,[7],1.92 µM (active)
O=C(NCC1CCCO1)C(=O)N/N=C/c1cc(Cl)ccc1O (configuration not stated),IC50,Nonstructural protein 1,7.81 µM (active)
Cc1cc([N+](=O)[O-])nn1CC(=O)N/N=C/c1ccc(O)cc1O,AC50,[8],12.1 µM (active)
same,IC50,Nonstructural protein 1,14.2 µM (active)
CCOC(=O)c1cnc2nc(C)ccc2c1O,EC50,[9],13.7 µM (inconclusive)
same,EC50,[10],11.8 µM (active)
